{
  "source": "ChEMBL document CHEMBL5352493",
  "about": "“Dual inhibitors of ASK1 and PDK1 kinases: Design, synthesis, molecular docking and mechanism studies of N-benzyl pyridine-2-one containing derivatives as anti-fibrotic agents” (Eur J Med Chem, 2023)",
  "key": {"[1]": {"assay": "Antiproliferative against rat NRK-49F cells measured after 48 hrs by CCK8 assay", "format": "toxicity, cell-based"}, "HFL1 [2]": {"test_system": "HFL1", "assay": "Induction of apoptosis in HLF1 cells assessed as viable cells at 15 uM incubated for 24 hrs measured by annexinV-FITC/PI based flow cytometric analysis (reference value: 88.3%)", "format": "functional", "conditions": "Homo sapiens, read-out: Activity"}, "HFL1 [3]": {"test_system": "HFL1", "assay": "Induction of apoptosis in HLF1 cells assessed as necrotic cells at 7.5 uM incubated for 24 hrs measured by annexinV-FITC/PI based flow cytometric analysis (reference value: 0%)", "format": "functional, Homo sapiens"}, "HFL1 [4]": {"test_system": "HFL1", "assay": "Induction of apoptosis in HLF1 cells assessed as late apoptotic cells at 7.5 uM incubated for 24 hrs measured by annexinV-FITC/PI based flow cytometric analysis (reference value: 0.08%)", "format": "functional, Homo sapiens"}, "HFL1 [5]": {"test_system": "HFL1", "assay": "Induction of apoptosis in HLF1 cells assessed as necrotic cells at 22.5 uM incubated for 24 hrs measured by annexinV-FITC/PI based flow cytometric analysis (reference value: 0%)", "format": "functional, Homo sapiens"}, "HFL1 [6]": {"test_system": "HFL1", "assay": "Antifibrotic activity in TGF-beta1 induced HLF1 cells assessed as decrease in collagen - I expression level measured at 7.5 to 15 uM after 24 hrs by Western blotting analysis", "format": "functional, cell-based", "conditions": "Homo sapiens, dose 7.5-15 µM"}, "HFL1 [7]": {"test_system": "HFL1", "assay": "Induction of apoptosis in HLF1 cells assessed as early apoptotic cells at 22.5 uM incubated for 24 hrs measured by annexinV-FITC/PI based flow cytometric analysis (reference value: 11.6%)", "format": "functional, Homo sapiens"}, "HFL1 [8]": {"test_system": "HFL1", "assay": "Induction of apoptosis in HLF1 cells assessed as early apoptotic cells at 15 uM incubated for 24 hrs measured by annexinV-FITC/PI based flow cytometric analysis (reference value: 11.6%)", "format": "functional, Homo sapiens"}, "[9]": {"molecular_target": "T1, Mitogen-activated protein kinase kinase kinase 5 (Homo sapiens, UniProt Q99683)", "T1 sequence (Q99683 whole entry)": "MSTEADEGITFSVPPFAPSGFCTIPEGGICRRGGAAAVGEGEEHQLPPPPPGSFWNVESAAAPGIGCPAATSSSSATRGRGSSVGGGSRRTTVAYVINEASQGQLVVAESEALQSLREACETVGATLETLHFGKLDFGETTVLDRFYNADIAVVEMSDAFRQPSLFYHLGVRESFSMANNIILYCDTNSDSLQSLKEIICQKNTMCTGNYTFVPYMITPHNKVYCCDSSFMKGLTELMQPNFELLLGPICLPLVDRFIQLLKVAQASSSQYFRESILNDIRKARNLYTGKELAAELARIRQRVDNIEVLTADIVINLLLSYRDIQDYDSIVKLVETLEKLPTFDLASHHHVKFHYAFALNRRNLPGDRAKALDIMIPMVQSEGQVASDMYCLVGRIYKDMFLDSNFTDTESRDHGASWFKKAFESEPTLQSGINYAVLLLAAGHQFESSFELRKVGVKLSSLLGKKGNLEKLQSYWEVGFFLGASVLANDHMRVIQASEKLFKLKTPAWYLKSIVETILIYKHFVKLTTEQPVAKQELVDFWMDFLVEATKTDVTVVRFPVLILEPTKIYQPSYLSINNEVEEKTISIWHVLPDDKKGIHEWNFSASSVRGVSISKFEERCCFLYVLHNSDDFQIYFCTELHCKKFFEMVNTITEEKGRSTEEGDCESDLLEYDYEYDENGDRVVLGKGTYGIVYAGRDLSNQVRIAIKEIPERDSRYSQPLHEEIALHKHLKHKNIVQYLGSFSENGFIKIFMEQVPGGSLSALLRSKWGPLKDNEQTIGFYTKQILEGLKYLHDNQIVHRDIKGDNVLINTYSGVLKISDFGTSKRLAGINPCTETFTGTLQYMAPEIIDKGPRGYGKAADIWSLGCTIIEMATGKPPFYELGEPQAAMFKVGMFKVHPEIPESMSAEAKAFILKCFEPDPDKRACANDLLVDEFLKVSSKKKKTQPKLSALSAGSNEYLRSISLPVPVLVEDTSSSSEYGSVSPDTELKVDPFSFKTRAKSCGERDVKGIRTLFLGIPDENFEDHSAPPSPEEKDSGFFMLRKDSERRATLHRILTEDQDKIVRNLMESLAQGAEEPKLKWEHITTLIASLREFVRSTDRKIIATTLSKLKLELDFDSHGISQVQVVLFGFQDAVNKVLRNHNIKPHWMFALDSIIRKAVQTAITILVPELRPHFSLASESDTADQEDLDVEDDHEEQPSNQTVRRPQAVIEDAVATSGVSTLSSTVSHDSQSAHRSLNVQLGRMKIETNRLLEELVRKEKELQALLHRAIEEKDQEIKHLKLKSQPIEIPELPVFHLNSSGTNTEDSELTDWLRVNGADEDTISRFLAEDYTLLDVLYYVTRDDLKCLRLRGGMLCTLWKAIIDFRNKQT", "assay": "Inhibition of human recombinant ASK1 using MBP as substrate preincubated for 1 hr followed by reagent addition incubated for 40 mins by ATP-Glo kinase assay"}, "HFL1 [10]": {"test_system": "HFL1", "assay": "Induction of apoptosis in HLF1 cells assessed as late apoptotic cells at 15 uM incubated for 24 hrs measured by annexinV-FITC/PI based flow cytometric analysis (reference value: 0.08%)", "format": "functional, Homo sapiens"}, "HFL1 [11]": {"test_system": "HFL1", "assay": "Downregulation of phosphorylated ASK1 in TGF-beta1 induced HFL1 cells at 7.5 to 15 uM for 24 hrs by Western blotting analysis", "format": "functional, cell-based", "conditions": "Homo sapiens, dose 7.5-15 µM"}, "[12]": {"assay": "Antiproliferative against rat HSC-T6 cells measured after 48 hrs by CCK8 assay", "format": "toxicity, cell-based"}, "HFL1 [13]": {"test_system": "HFL1", "assay": "Antifibrotic activity in TGF-beta1 induced HLF1 cells assessed as decrease in alpha SMA expression level measured at 7.5 to 15 uM after 24 hrs by Western blotting analysis", "format": "functional, cell-based", "conditions": "Homo sapiens, dose 7.5-15 µM"}, "HFL1 [14]": {"test_system": "HFL1", "assay": "Induction of apoptosis in HLF1 cells assessed as early apoptotic cells at 7.5 uM incubated for 24 hrs measured by annexinV-FITC/PI based flow cytometric analysis (reference value: 11.6%)", "format": "functional, Homo sapiens"}, "HFL1 [15]": {"test_system": "HFL1", "assay": "Induction of apoptosis in HLF1 cells assessed as late apoptotic cells at 22.5 uM incubated for 24 hrs measured by annexinV-FITC/PI based flow cytometric analysis (reference value: 0.08%)", "format": "functional, Homo sapiens"}, "HFL1 [16]": {"test_system": "HFL1", "assay": "Induction of apoptosis in HLF1 cells assessed as necrotic cells at 15 uM incubated for 24 hrs measured by annexinV-FITC/PI based flow cytometric analysis (reference value: 0%)", "format": "functional, Homo sapiens"}, "[17]": {"assay": "Antiproliferative against human BEAS-2B cells measured after 48 hrs by CCK8 assay", "format": "toxicity, cell-based"}, "[18]": {"assay": "Antiproliferative against HLF1 cells measured after 48 hrs by CCK8 assay", "format": "toxicity, cell-based", "conditions": "human, HFL1 cells (description prints HLF1)"}, "HFL1 [19]": {"test_system": "HFL1", "assay": "Induction of apoptosis in HLF1 cells assessed as viable cells at 22.5 uM incubated for 24 hrs measured by annexinV-FITC/PI based flow cytometric analysis (reference value: 88.3%)", "format": "functional", "conditions": "Homo sapiens, read-out: Activity"}, "HFL1 [20]": {"test_system": "HFL1", "assay": "Antifibrotic activity in TGF-beta1 induced HLF1 cells assessed as decrease in phosphorylated smad3 level measured at 7.5 to 15 uM after 24 hrs by Western blotting analysis", "format": "functional, cell-based", "conditions": "Homo sapiens, dose 7.5-15 µM"}, "HFL1 [21]": {"test_system": "HFL1", "assay": "Antifibrotic activity in TGF-beta1 induced HLF1 cells assessed as decrease in phosphorylated smad2 level measured at 7.5 to 15 uM after 24 hrs by Western blotting analysis", "format": "functional, cell-based", "conditions": "Homo sapiens, dose 7.5-15 µM"}, "HFL1 [22]": {"test_system": "HFL1", "assay": "Downregulation of phosphorylated JNK in TGF-beta1 induced HFL1 cells at 7.5 to 15 uM for 24 hrs by Western blotting analysis", "format": "functional, cell-based", "conditions": "Homo sapiens, dose 7.5-15 µM"}, "HFL1 [23]": {"test_system": "HFL1", "assay": "Downregulation of phosphorylated PDK1 in TGF-beta1 induced HFL1 cells at 7.5 to 15 microM for 24 hrs by Western blotting analysis", "format": "functional, cell-based", "conditions": "Homo sapiens, dose 7.5-15 µM"}, "HFL1 [24]": {"test_system": "HFL1", "assay": "Induction of apoptosis in HLF1 cells assessed as decrease in antiapoptotic Bcl-2 protein at 7.5 to 15 uM for 24 hrs by Western blotting analysis", "format": "functional, cell-based", "conditions": "Homo sapiens, dose 7.5-15 µM"}, "HFL1 [25]": {"test_system": "HFL1", "assay": "Induction of apoptosis in HLF1 cells assessed as viable cells at 7.5 uM incubated for 24 hrs measured by annexinV-FITC/PI based flow cytometric analysis (reference value: 88.3%)", "format": "functional", "conditions": "Homo sapiens, read-out: Activity"}, "HFL1 [26]": {"test_system": "HFL1", "assay": "Downregulation of phosphorylated p38 in TGF-beta1 induced HFL1 cells at 7.5 to 15 uM for 24 hrs by Western blotting analysis", "format": "functional, cell-based", "conditions": "Homo sapiens, dose 7.5-15 µM"}, "HFL1 [27]": {"test_system": "HFL1", "assay": "Downregulation of phosphorylated Akt in TGF-beta1 induced HFL1 cells at 7.5 microM for 24 hrs by Western blotting analysis", "format": "functional, cell-based", "conditions": "Homo sapiens"}},
  "note": "Active and inactive are the calls of the source. The calls are words filed in the database; no cut-off is given here.",
  "data": [
    {"smiles": "O=C(Nc1cccc(-c2nncn2C2CC2)n1)c1cc(-c2cnn(C3CC3)c2)cn(Cc2ccccc2F)c1=O", "values": [
      {"measurement": "IC50 at 48 h", "setting": "[1]", "value": 21.1, "unit": "µM"},
      {"measurement": "viability at 15 µM", "setting": "HFL1 [2]", "value": 67.6, "unit": "%"},
      {"measurement": "Activity", "setting": "HFL1 [3]", "value": 0, "unit": "%"},
      {"measurement": "Activity", "setting": "HFL1 [4]", "value": 0.083, "unit": "%"},
      {"measurement": "Activity", "setting": "HFL1 [5]", "value": 0.015, "unit": "%"},
      {"measurement": "Activity", "setting": "HFL1 [6]", "value": "Dose-Dependent Effect"},
      {"measurement": "Activity", "setting": "HFL1 [7]", "value": 30.3, "unit": "%"},
      {"measurement": "Activity", "setting": "HFL1 [8]", "value": 32.3, "unit": "%"},
      {"measurement": "IC50", "setting": "[9]", "value": 0.00173, "unit": "µM"},
      {"measurement": "Activity", "setting": "HFL1 [10]", "value": 0.079, "unit": "%"},
      {"measurement": "Activity", "setting": "HFL1 [11]", "value": "Active"},
      {"measurement": "IC50 at 48 h", "setting": "[12]", "value": 35.5, "unit": "µM"},
      {"measurement": "Activity", "setting": "HFL1 [13]", "value": "Dose-Dependent Effect"},
      {"measurement": "Activity", "setting": "HFL1 [14]", "value": 28.7, "unit": "%"},
      {"measurement": "Activity", "setting": "HFL1 [15]", "value": 0.104, "unit": "%"},
      {"measurement": "Activity", "setting": "HFL1 [16]", "value": 0, "unit": "%"},
      {"measurement": "IC50 at 48 h", "setting": "[17]", "value": 36, "unit": "µM"},
      {"measurement": "IC50 at 48 h", "setting": "[18]", "value": 15.2, "unit": "µM"},
      {"measurement": "viability at 22.5 µM", "setting": "HFL1 [19]", "value": 69.6, "unit": "%"},
      {"measurement": "Activity", "setting": "HFL1 [20]", "value": "Active"},
      {"measurement": "Activity", "setting": "HFL1 [21]", "value": "Active"},
      {"measurement": "Activity", "setting": "HFL1 [22]", "value": "Active"},
      {"measurement": "Activity", "setting": "HFL1 [23]", "value": "Dose-Dependent Effect"},
      {"measurement": "Activity", "setting": "HFL1 [24]", "value": "Active"},
      {"measurement": "viability at 7.5 µM", "setting": "HFL1 [25]", "value": 71.2, "unit": "%"},
      {"measurement": "Activity", "setting": "HFL1 [26]", "value": "Active"},
      {"measurement": "Activity", "setting": "HFL1 [27]", "value": "Active"}
    ]}
  ]
}
